Source: patent publication US11738072B2, “Tumor vaccine and uses thereof” (WestVac Biopharma Co., Ltd., priority 2017, dated 2023)

How the values were obtained:
[1] = system: mouse colorectal cancer cell line CT26; assay: Experiment (1): model mice with abdominal metastasis of CT26, treated 9 times; type: in vivo
Experimental: Balb/c mice aged 6-8 weeks were raised. The mouse colorectal cancer cell line CT26 cultured to the logarithmic growth phase was prepared into a cell suspension, and mouse abdominal tumor was modeled by intraperitoneal injection. The number of cells injected into each mouse was 2×10^5, and the injection system was 100 μl for each mouse.
As described in Table 14, the mice that had been successfully modeled were divided into groups as follows: Normal group was not inoculated with tumor cell nor administrated with drugs; untreated group was intraperitoneally inoculated with CT26 cells instead of drugs; NS group was intraperitoneally inoculated with tumor cells and administrated with normal saline. After inoculation of the tumor, mice were intraperitoneally administrated on the 3rd day as follows: 15 μg of plasmid DNA and 75 μg of DOTAP for each mouse in the treatment group of plasmid DNA/DOTAP complex group; i.e. the mass ratio of plasmid DNA to DOTAP was 1:5. After that, they were administrated every three days for a total of 9 times.
The mice were administrated for 9 times in total and allowed to die naturally. The natural death dates of the mice in each experimental group were recorded, and the body weight and survival time of the mice in each experimental group were counted. The volume of ascites were counted, tumors were removed and weighed.

[2] = system: lysosomes of A549 cells; assay: Lysosomal membrane permeability by CathepsinB intracellular localization; type: cell-based; conditions: 3 h, immunofluorescence, confocal microscope
Experimental: (1) Inoculation of A549 cells in plates: round sterilized cell slides were placed at the bottom of a 6-well plate, inoculated A549 cells into the 6-well plate as per 1×10^5 cells/well, 2 ml of medium was added to each well, and incubated overnight.
(2) The medium (blank control group), pMVA-1 plasmid (control group PMVA), DOTAP cationic lipid (control group DOTAP) and pMVA-1/DOTAP complex (experimental group PMVA-DOTAP) were added to A549 cells cultured in the Step (1), and incubated at 37° C. for 3 h.
(3) A549 cells treated by different groups in Step (2) were washed twice with PBS, stabilized with ice methanol for 3 min, washed twice with PBS, and sealed with PBST containing 0.3% Triton of 5% FBS for 20 min.
(4) The cells in Step (3) were washed once with PBS, and the human CathepsinB antibody (made by Abcam) was diluted at a ratio of 1:300. Incubating at room temperature for 1 h, washing with PBS three times for 5 minutes each time, adding 1:1000 fluorescent secondary antibody, and incubating at room temperature for 1 h in the dark.
(5) The cells in Step (4) were washed with PBS for three times, the films were washed with ultrapure water to remove excess water, and sealed with anti-fluorescence quencher, then cured for 6 h. Fluorescent cells were observed under a confocal microscope and the images were saved.

[3] = system: A549 cells; assay: A549 cell death test by PI-AnnexinV (fluorescence microscope); type: cell-based; conditions: A549, 24 h; complex mass ratio 1:6
Experimental: A549 cells in the logarithmic growth phase were prepared into single cell suspension, inoculated into a 6-well plate as per approximately 1×10^5 cells per well. Then, 2 ml of medium was added to each well and cultured in a 5% CO2 incubator at 37° C. for 24-36 h.
a. 5 mg/ml of pMVA-1 plasmid vector solution was added to 100 μl of 1640 serum-free medium for preparing a pMVA-1 plasmid vector control group;
b. 1 mg/ml of DOTAP cationic lipid was dissolved in 100 μl of 1640 serum-free medium for preparing a DOTAP cationic lipid control group;
c. the pMVA-1/DOTAP complex with a mass ratio of 1:6 prepared in Example 5 was dissolved in 100 μl of 1640 serum-free medium for preparing a pMVA-1/DOTAP complex experimental group.
Some of the medium was pipetted from the 6-well plate in Step (1) until the medium in each well reached 900 μl. The pMVA-1/DOTAP complex (pMVA-DOTAP) (prepared in Step (2)) of the experimental group as well as the pMVA-1 plasmid vector (PMVA) and DOTAP cationic lipid (DOTAP) of the control group was added to A549 cells cultured in Step (1) respectively to make the total volume of 1 ml. At the same time, a blank control group containing only medium was made, and incubated in a 5% of CO2 incubator at 37° C. for 24 h. […]
The cells stained with PI and Annexin V in Step (4) were washed once with PBS and observed under a fluorescence microscope. […]

[4] = system: mouse sarcoma cell line S180; assay: Subcutaneous S180 sarcoma model in mice; type: in vivo, KM mice; conditions: 2.5 μg pMVA-1 and/or 25 μg DOTAP sc every 3 days x5; 21 days after inoculation
Experimental: KM mice aged 6-8 weeks were raised. The mouse sarcoma cell line S180 cultured to the logarithmic growth phase was prepared into a cell suspension, and mouse subcutaneous tumor was modeled by subcutaneous injection in the right axilla of each mouse. The number of cells injected into each mouse was 1×10^7, and the injection system was 200 μl for each mouse.
On the 5th day after inoculation of S180 sarcoma cells, when the tumor could be palpated, 40 tumor-bearing mice were randomly divided into 4 groups according to Table 12: i.e. negative control group (NS), DOTAP control group, pMVA-1 control group, and treatment group pMVA-1/DOTAP group. Then, the mice were subcutaneously administrated according to Table 12: 2.5 μg of plasmid pMVA-1 for each mouse in the pMVA-1 control group; 25 μg of DOTAP for each mouse in DOTAP control group; 2.5 μg of DNA and 25 μg of DOTAP for each mouse in the treatment group of the pMVA-1/DOTAP complex group; that is, the mass ratio of plasmid DNA to DOTAP was 1:10. After that, they were administrated every three days for a total of 5 times. The mice were killed and the tumor-free rate of the mice was counted 21 days after inoculation of the tumor.

[5] = system: mouse cervical cancer cell line U14; assay: Mice U14 subcutaneous model, complex combined with chemotherapy; type: in vivo, C57 female mice; conditions: U14 sc
Experimental: C57 female mice aged 6-8 weeks were raised. The mouse cervical cancer cell line U14 cultured to the logarithmic growth phase was prepared into a cell suspension and the cell density was 2×10^7/ml. Experimental animals were subcutaneously injected on the right back, with an injection system of 100 μl per mouse. When the tumor could be palpated (tumor volume is about 4 mm×4 mm×3 mm, i.e. the 5th day after inoculation), the mice were randomly divided into 6 groups, and administrated every 3 days for a total of 8 times according to the grouping and treatment scheme in Table 16. The tumor volume was measured every three days. After administration for 8 times, the mice were killed and subcutaneous tumors were dissected for examination.
Wherein, the administration volume is 100 μl per mouse, DDP is intraperitoneally administrated once a week. DDP is Cisplatin and LP is pMVA-1/DOTAP complex.

## CCCCCCCC/C=C\CCCCCCCC(=O)OCC(C[N+](C)(C)C)OC(=O)CCCCCCC/C=C\CCCCCCCC (stereo not shown) [DOTAP, 1,2-dioleoyl-3-trimethylammonium-propane]
[1]; 15 μg pMVA-1 and/or 75 μg DOTAP ip every 3 days x9
  average ascites volume: 3.11 mL
[1]; 15 μg pMVA-1 and/or 75 μg DOTAP ip every 3 days x9, natural death
  day after inoculation of the tumor cells on which all mice of the group had died: 39 days
[1]; abdominal tumor weighed after the mice died
  average tumor weight: 8.23 g
[2]
  distribution of Cathepsin B in A549 cells: distributed in dots
[3]
  PI-positive and AnnexinV-positive cells: did not indicate obvious PI uptake and AnnexinV-labeled positive cells
[4]
  tumor-free rate of mice: 20%
[5]
  lymphocyte infiltration in tumor tissue: less common
